Read-outs that look alike come from different tables or passages of the source.
Columns and labels:
[1] = Tissue distribution study in Balb/c mice; type: in vivo; settings: VV116 oral 100 mg/kg
Procedure: A total of thirty Balb/c mice were divided into five groups (3 animals/sex/group). VV116 was intragastrically administered at 100 mg/kg dissolved in 40%PEG400+10% Kolliphor® HS15+50%. At 0 (not administered), 0.25, 2, 6, and 24 h post-dosing, the five groups of mice were anesthetized, respectively. Blood samples were collected, and tissues including liver and lung were harvested. Tissue samples were individually homogenized, and blood samples were processed as above. The concentrations of X1 in liver, lung and blood were analyzed by LC-MS/MS.

[2] = Cellular toxicity in A549 cells (WST-8 cell viability); type: cell-based; settings: human; A549 cells, 48 h; read-out: CC50
Procedure: Cell viability was performed in 96-well plate with triplicate for each concentration. All drugs were diluted 2 times with 9 gradients starting at 500 micromores in maintenance medium (DMEM containing 2% FBS). After 48 h incubation, the supernatant was removed, and 10 μL WST-8 (2-(2-methoxy-4-(phenyl)-3-(4-(phenyl) to 5 (2, 4-sulpho benzene) -2 h-tetrazolium monosodium salt) in maintenance medium was added in medium. Plates were measured at 450 nm wavelength using spectrophotometer (BioTek) after 2 h incubation, and cell viability was calculated.

[3] = Pharmacokinetic study in Balb/c mice; type: in vivo; settings: for Cmax: X1 in blood
Procedure: A total of nine Balb/c mice (N = 3 for each group, male) were divided into three groups, and fasted for 12 h before dosing. The three groups received oral dose of VV116 dissolved in 40%PEG400+10% Kolliphor® HS15+50% ultrapure water at 25 mg/kg, 50 mg/kg and 100 mg/kg, respectively. At 5 min, 0.25, 0.5, 1.0, 2.0, 4.0, 6.0, 8.0, and 24 h post-dosing, blood samples were collected from the jugular vein or the submandibular vein into EDTA-K2 tubes, and immediately mixed with acetonitrile (20 µL blood + 80 μL acetonitrile). The concentrations of analytes in the blood were analyzed by LC-MS/MS.

[4] = Toxicokinetics in SD rats; type: in vivo
Procedure: Groups of male and female SD rats (4 animals/sex/group) received repeated oral doses of VV116 (dissolved in 40%PEG400+10% Kolliphor® HS15+50% ultrapure water) at 100 (low), 200 (mild) and 500 mg/kg/d (high) for 14 days. At day 1 and day 14, blood samples were collected from the jugular vein into EDTA-K2 tubes at various time points post-dose. Plasma samples were obtained following general procedures and the concentrations of analytes in the samples were analyzed by LC-MS/MS.

RSV A2 = experiment: Inhibition of RSV A2 replication in A549 cells (qRT-PCR); type: cell-based, respiratory syncytial virus
Procedure: A549, HEp-2 or NHBE cells were plated into 48 well-plate and incubated overnight. Upon reaching 80% cell confluence, cells were infected RSV A2 (at an MOI of 2 in A549, MOI of 0.5 in HEp-2, and MOI of 1 in NHBE cells) for 2 h after cells were incubated for 1 h with varying concentrations of drugs. Then, the virus-drug mixture was removed, and cells were cultured with drug-containing medium. At 48 h post inoculation, total RNAs were extracted from cells and then in reverse transcription using PrimeScript RT reagent Kit with gDNA Eraser (TaKaRa). For determining the viral copies, absolute quantitative RT-PCR was performed with TB Green® Premix Ex Taq^TM II (TaKaRa). RSV A2 F fragment was quantified with primers 5’-[…]-3’; and 5’-[…]-3’

With `[2H]c1cc([C@]2(C#N)O[C@H](CO)[C@@H](O)[C@H]2O)n2ncnc(N)c12` [X1] the “concentration of X1 in the lung relative to that in the liver” value [1] was “about half”, the CC50 at 48 h [2] was greater than 500 µM and the “Time for blood concentration of X1 to reach Cmax” value ([3]; Balb/c mice, following oral administration of VV116) was no more than 0.5 h. It also gave a Cmax ([3]; male, mouse, whole blood, po, Balb/c mice, VV116 p.o. 25 mg/kg, read-out: Cmax) of 5360 ng/mL, a half-life ([3]; male, mouse, whole blood, X1, Balb/c mice, VV116 oral 25 to 100 mg/kg, read-out: elimination half-life) of 2.3 to 4.25 h and a Cmax ([3]; male, mouse, whole blood, Balb/c mice, VV116 oral 25 mg/kg, read-out: mean Cmax) of 18.4 µM. For the same compound, the AUC0-t ([4]; both sexes, rat, plasma, po, X1, SD rats, VV116 p.o. 200 mg/kg, Total, Day 1) was 85200 ng·h/mL, the “AUC0–t of X1 at rat NOAEL (200 mg/kg) relative to that at 50 mg/kg in mice” value ([4]; in vivo) was ~ 3.5 folds and the SI (RSV A2) was greater than 314. For the same compound, the EC90 (RSV A2; human respiratory syncytial virus, RSV A2) was 3.56 ± 0.63 µM and the EC50 (RSV A2; human respiratory syncytial virus, RSV A2 MOI 2, 48 h) was 1.59 ± 0.49 µM.
